According to US6756373B1, “Pharmaceutically active compounds” (Pfizer Inc., priority 1999, dated 2004):

Legend:
cGMP PDE5 = cGMP PDE5 (UniProt O76074); assay: Phosphodiesterase (PDE) inhibitory activity: in vitro inhibition of cGMP PDE5 (batch method or scintillation proximity assay); settings: in vitro activity as inhibitors of cGMP PDE5
Description: Phosphodiesterases 7-11 were generated from full length human recombinant clones transfected into SF9 cells.
In summary, the effect of PDE inhibitors was investigated by assaying a fixed amount of enzyme in the presence of varying inhibitor concentrations and low substrate, (cGMP or cAMP in a 3:1 ratio unlabelled to [^3H]-labeled at a conc ˜1/3 Km) such that IC50≅Ki. The final assay volume was made up to 100 μl with assay buffer [20 mM Tris-HCl pH 7.4, 5 mM MgCl2, 1 mg/ml bovine serum albumin].

Row | IC50 (cGMP PDE5) [nM] | melting point [°C] | Structure (SMILES)
1 | 3 | – | CCCOc1ncc(N(S(C)(=O)=O)S(C)(=O)=O)cc1-c1nc2c(CCC)nn(C)c2c(=O)[nH]1 [Example 76, N-[5-(1-Methyl-7-oxo-3-propyl-6,7-dihydro-1H-pyrazolo[4,3-d]pyrimidin-5-yl)-6-propoxy-3-pyridinyl]-N-(methylsulfonyl)methanesulfonamide]
2 | 0.3 | – | CCCOc1ncc(C#CC(=O)OCC)cc1-c1nc2c(CCC)nn(C)c2c(=O)[nH]1 [Example 72]
3 | 2 | 185 to 187 | CCCOc1ncc(NC(C)C(=O)OC)cc1-c1nc2c(CCC)nn(C)c2c(=O)[nH]1 (centres unmarked) [Example 83, Methyl 2-{[5-(1-Methyl-7-oxo-3-propyl-6,7-dihydro-1H-pyrazolo[4,3-d]-pyrimidin-5-yl)-6-propoxy-3-pyridinyl]amino}propanoate]
4 | 2.45 | – | CCCCOc1ncc(C(C)=O)cc1-c1nc2c(CC)n(CCN3CCOCC3)nc2c(=O)[nH]1 [Example 48]
5 | 1.41 | – | CCOc1ncc(C(C)=O)cc1-c1nc2c(-c3ccc(N(C)C)nc3)n(C)nc2c(=O)[nH]1 [Example 59, 5-(5-Acetyl-2-ethoxy-3-pyridinyl)-3-[6-(dimethylamino)-3-pyridinyl]-2-methyl-2,6-dihydro-7H-pyrazolo[4,3-d]pyrimidin-7-one]
6 | 0.3 | – | CCCOc1ncc(NC(=O)CC(=O)OC)cc1-c1nc2c(CCC)nn(C)c2c(=O)[nH]1 [Example 78, Methyl 3-{[5-(1-methyl-7-oxo-3-propyl-6,7-dihydro-1H-pyrazolo[4,3-d]-pyrimidin-5-yl)-6-propoxy-3-pyridinyl]amino}-3-oxopropanoate]
7 | 1.6 | 261 to 262 | CCCOc1ncc(NC(=O)CC(=O)O)cc1-c1nc2c(CCC)nn(C)c2c(=O)[nH]1 [Example 79, N-[5-(1-Methyl-7-oxo-3-propyl-6,7-dihydro-1H-pyrazolo[4,3-d]pyrimidin-5-yl)-6-propoxy-3-pyridinyl]-3-oxo-β-alanine]
8 | 5 | 239 to 241 | CCCOc1ncc(-c2cc(O)no2)cc1-c1nc2c(CCC)nn(C)c2c(=O)[nH]1 [Example 73, 5-[5-(3-Hydroxy-5-isoxazolyl)-2-propoxy-3-pyridinyl]-1-methyl-3-propyl-1,6-dihydro-7H-pyrazolo[4,3-d]pyrimidin-7-one]
9 | 4 | – | CCCOc1ncc(I)cc1-c1nc2c(CC)n(CC(=O)OC(C)(C)C)nc2c(=O)[nH]1 [Example 65, tert-butyl [3-ethyl-5-(5-iodo-2-propoxy-3-pyridinyl)-7-oxo-6,7-dihydro-2H-pyrazolo[4,3-d]-pyrimidin-2-yl]acetate]
10 | 0.9 | 267 to 270 | CCCOc1ncc(NS(=O)(=O)CC(=O)O)cc1-c1nc2c(CCC)nn(C)c2c(=O)[nH]1 [Example 80, ({[5-(1-Methyl-7-oxo-3-propyl-6,7-dihydro-1H-pyrazolo[4,3-d]pyrimidin-5-yl)-6-propoxy-3-pyridinyl]amino}sulfonyl)acetic Acid]
11 | 0.9 | – | CCCOc1ncc(NS(C)(=O)=O)cc1-c1nc2c(CCC)nn(C)c2c(=O)[nH]1 [Example 77, N-[5-(1-Methyl-7-oxo-3-propyl-6,7-dihydro-1H-pyrazolo[4,3-d]pyrimidin-5-yl)-6-propoxy-3-pyridinyl]methanesulfonamide]
12 | 2 | – | CCCOc1ncc(N2CCN(S(=O)(=O)c3ccc(C)cc3)CC2)cc1-c1nc2c(CCC)nn(C)c2c(=O)[nH]1 [Example 81, 1-Methyl-5-(5-{4-[(4-methylphenyl)sulfonyl]-1-piperazinyl}-2-propoxy-3-pyridinyl)-3-propyl-1,6-dihydro-7H-pyrazolo[4,3-d]pyrimidin-7-one]
13 | 4 | 175 | CCCOc1ncc(NCC(=O)OC)cc1-c1nc2c(CCC)nn(C)c2c(=O)[nH]1 [Example 82, Methyl {[5-(1-Methyl-7-oxo-3-propyl-6,7-dihydro-1H-pyrazolo[4,3-d]pyrimidin-5-yl)-6-propoxy-3-pyridinyl]amino}acetate]
14 | 7 | – | CCCOc1ncc(I)cc1-c1nc2c(CC)nn(CC(=O)OC(C)(C)C)c2c(=O)[nH]1 [Example 64, tert-butyl [3-ethyl-5-(5-iodo-2-propoxy-3-pyridinyl)-7-oxo-6,7-dihydro-1H-pyrazolo[4,3-d]pyrimidin-1-yl]acetate]
15 | 7.5 | – | CCCOc1ncc(N[C@@H](C)C(=O)O)cc1-c1nc2c(CCC)nn(C)c2c(=O)[nH]1 [Example 84, N-[5-(1-Methyl-7-oxo-3-propyl-6,7-dihydro-1H-pyrazolo[4,3-d]pyrimidin-5-yl)-6-propoxy-3-pyridinyl]alanine]
16 | 5 | – | CCCOc1ncc(NCC(=O)O)cc1-c1nc2c(CCC)nn(C)c2c(=O)[nH]1 [Example 75, {[5-(1-Methyl-7-oxo-3-propyl-6,7-dihydro-1H-pyrazolo[4,3-d]pyrimidin-5-yl)-6-propoxy-3-pyridinyl]amino}acetic Acid]
17 | – | 162.8 to 163.6 | CCCOc1ncc(C(C)=O)cc1-c1nc2c(CC)n(C3CN(C(C)C)C3)nc2c(=O)[nH]1 [Example 124, 5-(5-Acetyl-2-propoxy-3-pyridinyl)-3-ethyl-2-(1-isopropyl-3-azetidinyl)-2,6-dihydro-7H-pyrazolo[4,3-d]pyrimidin-7-one]
18 | – | 212 to 214 | CCCc1nn(C)c2c(=O)[nH]c(-c3cc([N+](=O)[O-])cnc3OC3CCC3)nc12 [Example 88, 5-[2-(Cyclobutyloxy)-5-nitro-3-pyridinyl]-1-methyl-3-propyl-1,6-dihydro-7H-pyrazolo[4,3-d]pyrimidin-7-one]
19 | 1 | – | CCCOc1ncc(-c2nnn[nH]2)cc1-c1nc2c(CCC)nn(C)c2c(=O)[nH]1 [Example 71, 1-Methyl-5-[2-propoxy-5-(1H-tetrazol-5-yl)-3-pyridinyl]-3-propyl-1,6-dihydro-7H-pyrazolo[4,3-d]pyrimidin-7-one]

Row | Structure (SMILES) | IC50 (cGMP PDE5) [nM] | melting point [°C]
20 | CCCCOc1ncc(C(C)=O)cc1-c1nc2c(CC)n(CCOC)nc2c(=O)[nH]1 [Example 16, 5-(5-Acetyl-2-butoxy-3-pyridinyl)-3-ethyl-2-(2-methoxyethyl)-2,6-dihydro-7H-pyrazolo[4,3-d]pyrimidin-7-one] | 6.55 | –
21 | CCCCOc1ncc(C(=O)CN2CCOCC2)cc1-c1nc2c(CC)n(CCOC)nc2c(=O)[nH]1 [Example 34, 5-[2-Butoxy-5-(4-morpholinylacetyl)-3-pyridinyl]-3-ethyl-2-(2-methoxyethyl)-2,6-dihydro-7H-pyrazolo[4,3-d]pyrimidin-7-one] | 30.7 | –
22 | CCCCOc1ncc(C(=O)N(C)OC)cc1-c1nc2c(CC)n(CCOC)nc2c(=O)[nH]1 [Example 5, 6-Butoxy-5-[3-ethyl-2-(2-methoxyethyl)-7-oxo-6,7-dihydro-2H-pyrazolo[4,3-d]pyrimidin-5-yl]-N-methoxy-N-methylnicotinamide] | 8.5 | –
23 | CCCCOc1ncc(C(C)=O)cc1-c1nc2c(CC)n(C3CCNCC3)nc2c(=O)[nH]1 [Example 49, 5-(5-Acetyl-2-butoxy-3-pyridinyl)-3-ethyl-2-(4-piperidinyl)-2,6-dihydro-7H-pyrazolo[4,3-d]pyrimidin-7-one] | 18 | –
24 | CCCCOc1ncc(C(C)=O)cc1-c1nc2c(CC)n(C3CCN(C(C)=O)CC3)nc2c(=O)[nH]1 [Example 131, 5-(5-Acetyl-2-butoxy-3-pyridinyl)-2-(1-acetyl-4-piperidinyl)-3-ethyl-2,6-dihydro-7H-pyrazolo[4,3-d]pyrimidin-7-one] | – | 156 to 157
